≈ marks a conversion by molar mass, not a printed value. Like-named read-outs stand apart in the source and are kept apart here.
What was measured:
[1] = Acute toxicity test (LD50), Litchfield-Wilcoxon method; assay type: in vivo; conditions: mouse, in vivo, ICR mice, male, observed 14 days
SKMEL-2 (human melanoma) = experiment: In vitro antitumor effect against human tumor cell lines, SRB assay, SKMEL-2; assay type: cell-based; conditions: SK-MEL-2 cells, 48 hours; for IC50: Homo sapiens, read-out: ED50 SK-MEL-2
Procedure: (§1) In vitro antitumor effect against human tumor cell lines.
(§2) a. Human solid tumor cell lines, A549(non-small lung cell), SKMEL-2(melanoma), HCT-15(colon), SKOV-3(ovarian), XF-498(CNS) were cultured at 37° C. in 5% CO2 incubators using RPMI 1640 media containing 10% FBS, while they were transfer-cultured successively once or twice per week. Cell cultures were dissolved in a solution of 0.25% trypsin and 3 mM CDTA PBS(−) and then cells were separated from media which the cells were sticked on.
(§3) b. 5×10^3˜2×10^4 cells were added into each well of 96-well plate and cultured in 5% CO2 incubator, at 37° C., for 24 hours.
(§4) c. Each sample drug was dissolved in a little DMSO and diluted with the used medium to a prescribed concentration for experiments, wherein the final concentration of DMSO was controlled below 0.5%.
(§5) d. Medium of each well cultured for 24 hours as above b. was removed by aspiration. Each 200 μl of drug samples prepared in c. was added into each well and the wells were cultured for 48 hours. Tz(time zero) plates were collected at the point of time drugs were added.
(§6) e. According to the SRB assay method, cell fixing with TCA, staining with 0.4% SRB solution, washing with 1% acetic acid and elution of dye with 10 mM Tris solution were carried out on Tz plates and culture-ended plates, whereby OD values were measured at 520 nm.
(§7) a. Time zero(Tz) value was determined with measuring the SRB protein amounts of the Tz plates collected at the point of time drugs were added.
(§8) b. Control value(C) was determined with the OD values of wells untreated with a drug.
(§9) c. Drug-treated test value(T) was determined with the OD values of drug-treated wells.
(§10) d. Effects of drugs were estimated with growth stimulation, net growth inhibition, net killing etc., being calculated from Tz, C and T.
(§11) e. If T≧Tz, cellular response function was calculated by 100×(T−Tz)/(C−Tz), and if T<Tz, by 100×(T−Tz)/Tz.

[2] = test system: A549 (human non-small lung cell); experiment: In vitro antitumor effect against human tumor cell lines, SRB assay, A549; assay type: cell-based; conditions: A549 cells, 48 hours; for IC50: Homo sapiens, read-out: ED50 A 549
Procedure: as §1, §2, §3, §4, §5, §6, §7, §8, §9, §10, §11

SKOV-3 (human ovarian) = experiment: In vitro antitumor effect against human tumor cell lines, SRB assay, SKOV-3; assay type: cell-based; conditions: SK-OV-3 cells, 48 hours; for IC50: Homo sapiens, read-out: ED50 SK-OV-3
Procedure: as §1, §2, §3, §4, §5, §6, §7, §8, §9, §10, §11

[3] = test system: P388 (mouse lymphoid neoplasma cell); experiment: In vitro antitumor effects against animal leukemia cells, dye exclusion assay; assay type: cell-based; conditions: 48 hours, trypan blue dye exclusion, read-out: P388 (IC50, concentration showing 50% cell growth inhibition compared with the control)
Procedure: In vitro antitumor effects against animal leukemia cells.
Tumor cell line: P388 (mouse lymphoid neoplasma cell)
B. Method: Dye Exclusion Assay.
1) Concentrations of P388 cells being cultured in RPMI 1640 media containing 10% FBS were regulated to 1×10^6 cells/ml.
2) Sample drugs of respective concentrations diluted in the ratio of log doses were added into each cell culture and cultured at 37° C., for 48 hours, in […] incubator, and then viable cell numbers were measured by dye exclusion test using trypan blue.

XF 498 (human CNS) = experiment: In vitro antitumor effect against human tumor cell lines, SRB assay, XF 498; assay type: cell-based; conditions: 48 hours; for IC50: Homo sapiens, XF498, XF-498 cells, read-out: ED50 XF-498
Procedure: as §1, §2, §3, §4, §5, §6, §7, §8, §9, §10, §11

HCT-15 (human colon) = experiment: In vitro antitumor effect against human tumor cell lines, SRB assay, HCT-15; assay type: cell-based; conditions: HCT 15 cells, 48 hours; for IC50: Homo sapiens, read-out: ED50 HCT 15
Procedure: as §1, §2, §3, §4, §5, §6, §7, §8, §9, §10, §11

ICR mice = experiment: Acute toxicity test (LD50), Litchfield-Wilcoxon method; assay type: in vivo; conditions: male, i.v., observed 14 days

Row | SMILES | IC50 (SKMEL-2 (human melanoma)) [ng/mL] | IC50 [2] [ng/mL] | IC50 (SKOV-3 (human ovarian)) [ng/mL] | IC50 [3] [ng/mL] | IC50 (XF 498 (human CNS)) [ng/mL] | IC50 (HCT-15 (human colon)) [ng/mL] | LD50 at 14 days ([1]; iv, i.v., read-out: LD50 i.v.) [mg/kg] | LD50 at 14 days ([1]; po, p.o., read-out: LD50 p.o.) [mg/kg] | LD50 i.v. (ICR mice) [mg/kg] | ED50 SK-MEL-2 (SKMEL-2 (human melanoma)) [ng/mL] | ED50 A 549 [2] [ng/mL] | ED50 SK-OV-3 (SKOV-3 (human ovarian)) [ng/mL] | ED50 XF-498 (XF 498 (human CNS); XF-498 cells) [ng/mL] | ED50 HCT 15 (HCT-15 (human colon)) [ng/mL]
1 | COc1nc(C)c(C)nc1NC(=O)N1CCN(c2cc(C)cc(C)c2)CC1 [Example 7, 1-[(5,6-Dimethyl-2-methoxypyrazin-3-yl)aminocarbonyl]-4-(3,5-dimethylphenyl)piperazine] | 2.3 (≈ 6.23 nM) | 2.4 (≈ 6.5 nM) | 7.2 (≈ 19.5 nM) | 20 (≈ 54.1 nM) | 2.7 (≈ 7.31 nM) | 2.8 (≈ 7.58 nM) | 75 | – | – | – | – | – | – | –
2 | COc1nc(C)c(C)nc1N(C)C(=O)N1CCN(c2cc(C)cc(C)c2)CC1 [Example 20, 1-[(5,6-Dimethyl-2-methoxypyrazin-3-yl)N-methylaminocarbonyl]-4-(3,5-dimethylphenyl)piperazine] | 211 (≈ 550 nM) | 323 (≈ 842 nM) | 904 (≈ 2360 nM) | 1200 (≈ 3130 nM) | 970 (≈ 2530 nM) | 295 (≈ 769 nM) | – | – | – | – | – | – | – | –
3 | COc1nc(C)c(C)nc1N(C)C(=O)N1CCN(c2cc(Cl)cc(Cl)c2)CC1 [Example 21, 1-[(5,6-Dimethyl-2-methoxypyrazin-3-yl)N-methylaminocarbonyl]-4-(3,5-dichlorophenyl)piperazine] | 24 (≈ 56.6 nM) | 38 (≈ 89.6 nM) | 93 (≈ 219 nM) | 800 (≈ 1890 nM) | 97 (≈ 229 nM) | 8 (≈ 18.9 nM) | – | – | – | – | – | – | – | –
4 | COc1cc(OC)cc(N2CCN(C(=O)Nc3nc4ccccc4nc3OC)CC2)c1 [Example 38, 1-[(2-Methoxyquinoxalin-3-yl)aminocarbonyl]-4-(3,5-dimethoxyphenyl)piperazine] | 0.04 (≈ 0.0945 nM) | 0.03 (≈ 0.0708 nM) | 0.09 (≈ 0.213 nM) | 10 (≈ 23.6 nM) | 0.11 (≈ 0.26 nM) | 0.13 (≈ 0.307 nM) | 97 | 410 | – | – | – | – | – | –
5 | COc1nc2ccccc2nc1NC(=O)N1CCN(c2cc([N+](=O)[O-])cc([N+](=O)[O-])c2)CC1 [Example 48, 1-[(2-Methoxyquinoxalin-3-yl)aminocarbonyl]-4-(3,5-dinitrophenyl)piperazine] | 0.3 (≈ 0.662 nM) | 1 (≈ 2.21 nM) | 7 (≈ 15.4 nM) | 390 (≈ 860 nM) | 4 (≈ 8.82 nM) | 2 (≈ 4.41 nM) | – | – | – | – | – | – | – | –
6 | COc1nc(C)c(C)cc1N=C(NO)N1CCN(c2cc(C)cc(C)c2)CC1 [Example 99, N-Hydroxy-N′-(5,6-dimethyl-2-methoxypyridin-3-yl)-[4-(3,5-dimethylphenyl)piperazin-1-yl]carboxyimidamide] | – | – | – | – | – | – | – | – | >200 | 6 (≈ 15.6 nM) | 12 (≈ 31.3 nM) | 8 (≈ 20.9 nM) | 10 (≈ 26.1 nM) | 3 (≈ 7.82 nM)
7 | COc1nc(C)c(C)cc1N=C(NO)N1CCN(c2cccc(Br)c2)CC1 [Example 104, N-Hydroxy-N′-(5,6-dimethyl-2-methoxypyridin-3-yl)-[4-(3-bromophenyl)piperazin-1-yl]carboxyimidamide] | – | – | – | – | – | – | – | – | 212 | – | – | – | – | –

The next lines start with results.

Row | IC50 (SKMEL-2 (human melanoma)) [ng/mL] | IC50 [2] [ng/mL] | IC50 (SKOV-3 (human ovarian)) [ng/mL] | IC50 [3] [ng/mL] | IC50 (XF 498 (human CNS)) [ng/mL] | IC50 (HCT-15 (human colon)) [ng/mL] | SMILES | LD50 at 14 days ([1]; iv, i.v., read-out: LD50 i.v.) [mg/kg] | LD50 at 14 days ([1]; po, p.o., read-out: LD50 p.o.) [mg/kg] | LD50 i.v. (ICR mice) [mg/kg] | ED50 SK-MEL-2 (SKMEL-2 (human melanoma)) [ng/mL] | ED50 A 549 [2] [ng/mL] | ED50 SK-OV-3 (SKOV-3 (human ovarian)) [ng/mL] | ED50 XF-498 (XF 498 (human CNS); XF-498 cells) [ng/mL] | ED50 HCT 15 (HCT-15 (human colon)) [ng/mL]
8 | < 0.1 | 0.1 (≈ 0.24 nM) | 0.6 (≈ 1.44 nM) | 40 (≈ 95.8 nM) | 0.1 (≈ 0.24 nM) | 0.1 (≈ 0.24 nM) | COc1cc(OC)cc(N2CCN(C(=S)Nc3nc(C)c(C)nc3OC)CC2)c1 [Example 28, 1-[(5,6-Dimethyl-2-methoxypyrazin-3-yl)aminothiocarbonyl]-4-(3,5-dimethoxyphenyl)piperazine] | – | – | – | – | – | – | – | –
9 | < 0.1 | 0.6 (≈ 1.56 nM) | 0.7 (≈ 1.82 nM) | 70 (≈ 182 nM) | 0.5 (≈ 1.3 nM) | 0.7 (≈ 1.82 nM) | COc1nc(C)c(C)nc1NC(=S)N1CCN(c2cc(C)cc(C)c2)CC1 [Example 30, 1-[(5,6-Dimethyl-2-methoxypyrazin-3-yl)aminothiocarbonyl]-4-(3,5-dimethylphenyl)piperazine] | – | – | – | – | – | – | – | –
10 | 20 (≈ 50.8 nM) | 10 (≈ 25.4 nM) | 20 (≈ 50.8 nM) | 300 (≈ 762 nM) | 3 (≈ 7.62 nM) | 9 (≈ 22.9 nM) | COc1ccccc1N1CCN(C(=O)Nc2nc3ccccc3nc2OC)CC1 [Example 37, 1-[(2-Methoxyquinoxalin-3-yl)aminocarbonyl]-4-(2-methoxyphenyl)-piperazine] | – | – | – | – | – | – | – | –
11 | 11 (≈ 25 nM) | 19 (≈ 43.2 nM) | 57 (≈ 130 nM) | 340 (≈ 774 nM) | 14 (≈ 31.9 nM) | 32 (≈ 72.8 nM) | COc1cc(OC)cc(N2CCN(C(=S)Nc3nc4ccccc4nc3OC)CC2)c1 [Example 64, 1-[(2-Methoxyquinoxalin-3-yl)aminothiocarbonyl]-4-(3,5-dimethoxyphenyl)piperazine] | – | – | – | – | – | – | – | –
12 | 2 (≈ 4.91 nM) | 5 (≈ 12.3 nM) | 8 (≈ 19.6 nM) | 200 (≈ 491 nM) | 8 (≈ 19.6 nM) | 3 (≈ 7.36 nM) | COc1nc2ccccc2nc1NC(=S)N1CCN(c2cc(C)cc(C)c2)CC1 [Example 66, 1-[(2-Methoxyquinoxalin-3-yl)aminothiocarbonyl]-4-(3,5-di-methylphenyl)piperazine] | – | – | – | – | – | – | – | –
13 | < 0.1 | 0.1 (≈ 0.229 nM) | 0.7 (≈ 1.6 nM) | 100 (≈ 229 nM) | 0.1 (≈ 0.229 nM) | 0.1 (≈ 0.229 nM) | CCOc1nc2ccccc2nc1NC(=O)N1CCN(c2cc(OC)cc(OC)c2)CC1 [Example 72, 1-[(2-Ethoxyquinoxalin-3-yl)aminocarbonyl]-4-(3,5-dimethoxyphenyl)piperazine] | – | – | – | – | – | – | – | –
14 | 3 (≈ 7.4 nM) | 2 (≈ 4.93 nM) | 38 (≈ 93.7 nM) | 680 (≈ 1680 nM) | 24 (≈ 59.2 nM) | 28 (≈ 69.1 nM) | CCOc1nc2ccccc2nc1NC(=O)N1CCN(c2cc(C)cc(C)c2)CC1 [Example 74, 1-[(2-Ethoxyquinoxalin-3-yl)aminocarbonyl]-4-(3,5-dimethylphenyl)piperazine] | – | – | – | – | – | – | – | –
